The text below walks through data of US20090041719A1, “Method for screening therapeutic agent for glomerular disorder” (priority 2006, published 2009).

The structures appear in SMILES notation. Several values for one entry are separate records, joined by “and”; a condition that tells them apart may be missing. Equal values may be shown once.

Experiment [1] has as its system rat unilateral ureteral obstruction release model. As to the kind of experiment: Rat unilateral ureteral obstruction release model: glomerular and tubulointerstitial lesions, Asc-1+ cells.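 As to Tubulointerstitial lesion: atrophy of tubules associated with dilatation of tubules (score): ± very light + light ++ moderate +++ high change.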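 As to Tubulointerstitial lesion: fibrosis of interstitial tissue (score): ± very light + light ++ moderate +++ high change.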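 As to Tubulointerstitial lesion: thickness of basement membrane (score): ± very light + light ++ moderate +++ high change.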 It is filed as in vivo, SD rat. To be noted: for Improvement of glomerular lesion: Yes = lesioned glomeruli per 50 glomeruli reduced to less than or equal to half the control average; for Improvement of tubulointerstitial lesion: Yes = reduced to less than or equal to half the control average. The source says:
An experimental model was produced in accordance with the method devised and established by Ishibashi (Michio Ishibasi et al., Japanese Journal of Nephrology 42: 248, 2000), using a 8 to 9-week-old male SD rat weighing about 280 g. […] On day 14 after obstruction, the obstruction was released, and the urinary tract was reconstructed using a cuff. That is, 14 days later, the ligated ureteral obstruction part was partially removed, and a 25 gauge polyethylene tube (made by Nippon Sherwood) as a cuff was inserted from the lower normal ureteral stump and placed in the lumen. Next, the cuff was placed also in the expanded upper ureter, and both parts were ligated for fixation with a 7-0 nylon suture to reconstruct the urinary tract. At the same time, the right kidney was removed. The weight was measured after obstruction release, and the blood was collected on days 2, 5, and 7 after release for serum creatinine determination. On day 7, the rat was sacrificed under anesthesia and the left obstruction release kidney was removed. The weight of the removed kidney was measured, and the kidney pathomorphological examination was performed.
The biological effects of the test compound were studied in vivo using the model obtained in the above procedure 1). The test compound in the form of bulk powder was dissolved in sterilized physiologic saline together with gum arabic, where the concentration of the gum arabic was adjusted to 5% and the concentration of the test compound was adjusted to 30 mg/ml. The amount of 30 mg/kg was subcutaneously administered every day. Daily administration was continued for 21 days during 14 days of obstruction and 7 days after obstruction release. For controlled comparison, the solvent of 5% gum arabic was administered alone.
On day 22 from the administration of the test compound, the rat was sacrificed under anesthesia, and the left obstruction release kidney was removed and neutral formalin fixed. The fixed renal tissue embedded in paraffin was sliced into 4-micrometer-thick pieces for examination.
The tissue section was observed under a microscope in order to count the number of glomeruli and the number of glomeruli having a lesion (expansion of a tubular pole associated with swollen Bowman's capsule epithelial cells or hypertrophy of a Bowman's capsule basal membrane) in the field of view, and the number of glomeruli having the lesion (referred to as “lesioned glomerulus”) per 50 glomeruli was calculated.
As for the effectiveness to improve of glomerular lesions, when the number of lesioned glomeruli per 50 glomeruli was reduced to less than or equal to half the average number of those of the control group, it was determined as improved.
An affinity-purified anti-rat Asc-1 polyclonal antibody (rabbit) was prepared as follows: that is, in order to prepare an anti-Asc-1 peptide polyclonal antibody (rabbit), an oligopeptide (PSPLPITDKPLKTQC (SEQ. ID NO: 4)) corresponding to amino acid residues of 517-530 of Asc-1 was synthesized (see J Biol Chem (2000); 275: 9690-9698), keyhole limpet hemocyanine was bound to the C-terminal cysteine as an adjuvant, and […] was immunized therewith. The serum was collected on days 7 and 14 from the immunization. The serum was concentrated by means of an adsorption-dissociation operation using an affinity column to which an oligopeptide corresponding to amino acid residues of 517-530 of Asc-1 was bound in order to obtain an affinity-purified antibody having a protein content of 0.5 mg/ml. As for immunopathological examination, paraffin rat […] diluted with PBS to the optimal concentration was used.
The immune tissue staining was performed based on the protocol of Ventana HX system bench mark (Ventana Japan K.K., Tokyo) including the automated immunostaining device manufactured by Ventana Japan K.K. After deparaffinization, the tissue section was heat-treated at 100° C. for 1 hour. […]

Experiment [2] has as its system glomerular lesions; renal tubulointerstitial lesions. The following applies: International Publication WO 2004/024185 and 01/72730 pamphlets; cited from earlier work.
Where [3] appears, read: group average ± standard deviation.
Setting [4] is: individual animal, 30 mg/kg s.c. daily for 21 days, 30 mg/kg.
The mark [5] stands for this setting: individual animal, points: ± 0.5, + 1, ++ 2, +++ 3.
The mark [6] stands for this setting: individual animal, sum of the three scores.

For the compound `C[C@@H](OC[C@]1(Oc2ccc(F)cc2)CCC(=O)O1)c1ccc2ccccc2c1` [(4-2)], in experiment [1] (setting [3]), the “Glomerular lesion: number of lesioned glomeruli per 50 glomeruli, expansion of tubular pole associated with swollen Bowman's capsule epithelial cells” value worked out at 11 ± 6 per 50 glomeruli; the “Glomerular lesion: number of lesioned glomeruli per 50 glomeruli, hypertrophy of Bowman's capsule basal membrane” value stood at 18 ± 9 per 50 glomeruli; the “Number of Asc-1+ cells per 50 glomeruli” value is 4.03 ± 3.06 per 50 glomeruli; the “Tubulointerstitial lesion: atrophy of tubules associated with dilatation of tubules (score)” value (shortened to “Tubulointerstitial lesion: atrophy”) was 1.0 ± 0. In experiment [1] (setting [3]), the “Tubulointerstitial lesion: fibrosis of interstitial tissue (score)” value (“Tubulointerstitial lesion: fibrosis” below) is given as 1.5 ± 0.6, the “Tubulointerstitial lesion: thickness of basement membrane (score)” value (“Tubulointerstitial lesion: thickness” for short) is 0.9 ± 0.3 and the “Tubulointerstitial lesion: total score” value turned out to be 3.4 ± 0.5. For the same compound, in experiment [1] (setting [4]), the “Glomerular lesion: number of lesioned glomeruli per 50 glomeruli, expansion of tubular pole associated with swollen Bowman's capsule epithelial cells” value was 16 per 50 glomeruli (2×) and 6 per 50 glomeruli and 7 per 50 glomeruli; the “Glomerular lesion: number of lesioned glomeruli per 50 glomeruli, hypertrophy of Bowman's capsule basal membrane” value was 29 per 50 glomeruli and 9 per 50 glomeruli and 20 per 50 glomeruli and 13 per 50 glomeruli; the “Number of Asc-1+ cells per 50 glomeruli” value was 1.81 per 50 glomeruli and 7.39 per 50 glomeruli and 5.83 per 50 glomeruli and 1.10 per 50 glomeruli. Further, in experiment [1] (individual animal), the “Improvement of glomerular lesion” value is “No (2×) and Yes (2×)”; the “Improvement of tubulointerstitial lesion” value is “No and Yes (3×)”. Besides, in experiment [1] (setting [5]), the “Tubulointerstitial lesion: atrophy” value was found to be 1; the “Tubulointerstitial lesion: fibrosis” value is 2 (2×) and 1 (2×); the “Tubulointerstitial lesion: thickness” value was 1 (3×) and 0.5. Further, the “Tubulointerstitial lesion: total score” value in experiment [1] (setting [6]) is 4.0 and 3.5 and 3.0 (2×). Further, the “known action on renal tubulointerstitial lesions” value in experiment [2] was “selectively inhibit the renal tubulointerstitial lesions”.
Consider `C[C@@H](OC[C@@]1(Oc2ccc(F)cc2)CCC(=O)O1)c1ccc2ccccc2c1` [(3-2)], for which, in experiment [1] (setting [3]), the “Glomerular lesion: number of lesioned glomeruli per 50 glomeruli, expansion of tubular pole associated with swollen Bowman's capsule epithelial cells” value turned out to be 6 ± 3 per 50 glomeruli; the “Glomerular lesion: number of lesioned glomeruli per 50 glomeruli, hypertrophy of Bowman's capsule basal membrane” value came out at 6 ± 1 per 50 glomeruli; the “Number of Asc-1+ cells per 50 glomeruli” value was determined as 11.06 ± 3.51 per 50 glomeruli; the “Tubulointerstitial lesion: atrophy” value is on record as 2.6 ± 0.9. In addition, in experiment [1] (setting [3]), the “Tubulointerstitial lesion: fibrosis” value is listed as 2.2 ± 0.4, the “Tubulointerstitial lesion: thickness” value came to 2.2 ± 0.4 and the “Tubulointerstitial lesion: total score” value was found to be 7.0 ± 1.2. In experiment [1] (setting [4]), the “Glomerular lesion: number of lesioned glomeruli per 50 glomeruli, expansion of tubular pole associated with swollen Bowman's capsule epithelial cells” value is 10 per 50 glomeruli and 6 per 50 glomeruli (2×) and 5 per 50 glomeruli and 3 per 50 glomeruli; the “Glomerular lesion: number of lesioned glomeruli per 50 glomeruli, hypertrophy of Bowman's capsule basal membrane” value is 6 per 50 glomeruli and 5 per 50 glomeruli (2×) and 8 per 50 glomeruli and 7 per 50 glomeruli; the “Number of Asc-1+ cells per 50 glomeruli” value is 9.48 per 50 glomeruli and 9.55 per 50 glomeruli and 14.91 per 50 glomeruli and 6.84 per 50 glomeruli and 14.52 per 50 glomeruli. Further, in experiment [1] (individual animal), the “Improvement of glomerular lesion” value is recorded as “Yes” and the “Improvement of tubulointerstitial lesion” value is on record as “No”. In addition, in experiment [1] (setting [5]), the “Tubulointerstitial lesion: atrophy” value was 3 (4×) and 1; the “Tubulointerstitial lesion: fibrosis” value is 2 (4×) and 3; the “Tubulointerstitial lesion: thickness” value is 2 (4×) and 3. In addition, the “Tubulointerstitial lesion: total score” value in experiment [1] (setting [6]) is 7 (2×) and 8 (2×) and 5. In experiment [2], the “known action on glomerular lesions” value is reported as “selectively inhibit the glomerular lesions”.
